Experimental data as given in patent US20220288038A1, “ABCC11 INHIBITOR” (THE UNIVERSITY OF TOKYO, priority 2019, published 2022).
Entries after “also recorded” stand apart in the source; their conditions may differ.

Assays:
[1] = target: T1, human ABCC11 WT (NCBI accession NM_033151) (Homo sapiens, UniProt Q96J66); assay: Inhibition of ABCC11-mediated ATP-dependent [3H]-DHEAS transport into ABCC11-expressing plasma membrane vesicles (vesicle transport assay, rapid filtration); type: biochemical
T1 construct: made in house; host or cells: plasma membrane vesicles from HEK293-derived 293A cells infected with ABCC11-expressing recombinant adenovirus
T1 sequence (Q96J66 whole entry): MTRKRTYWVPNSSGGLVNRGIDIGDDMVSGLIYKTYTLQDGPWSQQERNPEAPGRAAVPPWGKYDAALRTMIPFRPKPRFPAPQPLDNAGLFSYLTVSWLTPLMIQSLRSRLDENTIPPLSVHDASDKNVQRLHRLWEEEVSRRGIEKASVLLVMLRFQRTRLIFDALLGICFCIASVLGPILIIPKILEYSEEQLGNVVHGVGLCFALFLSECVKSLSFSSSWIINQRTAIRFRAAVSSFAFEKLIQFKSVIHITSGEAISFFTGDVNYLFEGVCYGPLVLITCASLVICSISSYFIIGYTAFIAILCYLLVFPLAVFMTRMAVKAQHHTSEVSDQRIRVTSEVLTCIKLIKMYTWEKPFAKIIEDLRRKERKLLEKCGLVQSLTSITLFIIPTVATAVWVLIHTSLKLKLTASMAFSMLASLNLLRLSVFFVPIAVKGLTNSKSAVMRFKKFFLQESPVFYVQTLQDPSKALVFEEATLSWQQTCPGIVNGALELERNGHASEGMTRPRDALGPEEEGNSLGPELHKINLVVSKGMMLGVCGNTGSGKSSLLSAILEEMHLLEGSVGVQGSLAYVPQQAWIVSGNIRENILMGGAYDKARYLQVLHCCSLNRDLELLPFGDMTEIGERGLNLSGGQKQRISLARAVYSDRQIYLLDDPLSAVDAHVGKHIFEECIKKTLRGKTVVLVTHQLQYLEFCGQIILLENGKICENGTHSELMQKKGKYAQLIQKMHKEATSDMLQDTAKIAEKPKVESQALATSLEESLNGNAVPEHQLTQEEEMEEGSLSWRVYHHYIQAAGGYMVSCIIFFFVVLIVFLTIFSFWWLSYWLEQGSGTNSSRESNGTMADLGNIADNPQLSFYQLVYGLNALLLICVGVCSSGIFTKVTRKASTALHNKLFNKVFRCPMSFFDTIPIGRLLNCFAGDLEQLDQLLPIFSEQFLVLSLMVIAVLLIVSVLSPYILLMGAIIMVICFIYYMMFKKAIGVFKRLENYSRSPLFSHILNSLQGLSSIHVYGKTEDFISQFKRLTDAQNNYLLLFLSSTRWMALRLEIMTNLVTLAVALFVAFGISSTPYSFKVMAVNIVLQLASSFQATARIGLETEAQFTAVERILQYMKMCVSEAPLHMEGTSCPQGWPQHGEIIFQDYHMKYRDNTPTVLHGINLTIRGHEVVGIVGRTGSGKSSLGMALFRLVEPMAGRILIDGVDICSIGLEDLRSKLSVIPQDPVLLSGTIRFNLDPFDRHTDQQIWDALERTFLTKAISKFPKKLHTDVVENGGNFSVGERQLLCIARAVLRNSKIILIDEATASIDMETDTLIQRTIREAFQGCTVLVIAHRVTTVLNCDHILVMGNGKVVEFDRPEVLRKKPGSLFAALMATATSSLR
Excerpt: (§1) Using an in vitro transport system with ABCC11-expresssing plasma. membrane vesicles (FIG. 1A), we investigated the effect of the test compound on ABCC11 function. To confirm the experimental system, we first examined the time-dependent increase in ATP-dependent dehydroepiandrosterone sulfate (DHEAS)—an ABCC11 substrate (Chen et al., 2005)—transport into the ABCC11-expressing plasma membrane vesicles (FIG. 1B).
(§2) Critical materials and resources used in this study were summarized in Supplementary Table S1. […]
FIG. 1. […] The DHEAS transport into membrane vesicles was measured at the indicated periods with or without ATP; the ATP-dependent DHEAS transport was calculated by subtracting the DHEAS transport activity in the absence of ATP from that in the presence of ATP. Data are expressed as the mean±SD. n=3. […] The DHEAS transport activities were measured in the presence of febuxostat at the indicated concentrations for 5 min. Data are expressed as the mean±SD. n=4. […]
Critical materials and resources used in this study were summarized in Supplementary Table S1. […] After the purification by a CsCl gradient ultracentrifugation method, the adenovirus titer was determined by using an. […]

human ABCC11 = target: T2, human ABCC11 (Homo sapiens, UniProt Q96J66); assay: in vitro DHEAS vesicle transport assay with ABCC11-expressing plasma membrane vesicles; type: biochemical; details: ATP-dependent transport of 100 nM [3H]-DHEAS into ABCC11-expressing 293A plasma membrane vesicles, 5 min, 37° C., febuxostat at indicated concentrations
T2 construct: The complete human ABCC11 cDNA; expressed in transfected cells; host or cells: 293A cells (HEK293-derived), adenovirus-infected; plasma membrane vesicles prepared from them
T2 sequence (Q96J66 whole entry): as above
Excerpt: as §1, §2
Membrane vesicles were prepared from 293A cells infected with the ABCC11-expressing or EGFP-expressing (control) adenovirus as described previously (Toyoda et al., 2017). […] Protein concentration of the plasma membrane vesicles was quantified using a BCA Protein Assay Kit (Pierce, Rockford, Ill., USA) with bovine serum albumin (BSA) as a standard according to the manufacturer's protocol.
Experiments to study the in vitro transport of [1,2,6,7-^3H(N)]-dehydroepiandrosterone sulfate (DHEAS) (Perkin-Elmer Japan, Tokyo, Japan), an ABCC11 substrate (Chen et al., 2005), into ABCC11-expressing and control vesicles were performed by using a rapid filtration technique (Toyoda et al., 2017; Toyoda et al., 2019) with a minor modification. […] Then, the radioactivity derived from the incorporated DHEAS was measured. […]

Row | SMILES | IC50 [1] | inhibition of ABCC11-mediated DHEAS transport (human ABCC11)
1 | Cc1nc(-c2ccc(OCC(C)C)c(C#N)c2)sc1C(=O)O [Febuxostat] | 3.26 µM | –
2 | Cc1nc(-c2ccc(OCC(C)C)c(C#N)c2)sc1C(=O)O [febuxostat] | – | Dose-dependent inhibition; also recorded: inhibited ABCC11
